In patent publication US7244730B2, “2-iminopyrrolidine derivatives” (Eisai Co., Ltd, priority 2001, dated 2007):
Structures can show the parent of a compound that is named as a salt.

Columns and labels:
[1] = tested on: Vascular smooth muscle cells (rSMC); test: Rat smooth muscle cell proliferation assay; type: cell-based; details: 48 h; male SD rat aorta rSMC; thrombin 0.1 unit/ml; 2 days; MTT, OD 590 nm; read-out: Rat SMC IC50
Protocol: [Rat Smooth Muscle Cell Proliferation Assay]
Vascular smooth muscle cells (rSMC) were isolated from male SD rat aorta by the explant method. DMEM medium (Sigma) containing 10% fetal bovine serum (GibcoBRL), streptomycin and penicillin was used as the proliferation medium, and subculture was carried out at 37° C. in the presence of 5% CO2. Culture was initiated after adding 100 μl of rSMC suspension in proliferation medium at a concentration of 1×10^4 cells/ml, to a 96-well plate. After 3 days, cells were rinsed twice with 100 μl of DMEM medium, the medium was exchanged with 100 μl of DMEM medium containing 0.1% albumin (starvation medium), and serum starvation was initiated. The medium was exchanged two days after the serum starvation, 80 μl of starvation medium and 10 μl of the test compound diluted to different concentrations with the starvation medium were added, and then 10 μl of thrombin dissolved in the starvation medium (final concentration: 0.1 unit/ml) was added prior to further incubation for 2 days.
Upon adding 20 μl of MTT (3-[4,5-dimethylthiazol-2-yl]-2,5-diphenyltetrazolium bromide) dissolved in DPBS to 7.5 mg/ml, incubation was continued for 4 hours. The medium was removed by suction, 50 μl of a 10% SDS/0.029% ammonia solution was added, and the mixture was allowed to stand for 2 hours in a CO2 incubator for complete lysis of the cells. As an index of cell proliferation, the OD 590 nm was measured using a plate reader (EL340, BIO-TEK Instruments Inc.), and the control OD value (OD value in the absence of the test compound) minus the OD value in the presence of the test compound was divided by the control OD value minus the blank OD value (OD value without thrombin stimulation) to determine the inhibition ratio, from which the IC50 value was calculated.

[2] = target: T1, thrombin receptor (Homo sapiens, UniProt P25116); test: Receptor binding assay ([3H] high affinity TRAP, platelet membrane); details: platelet membrane of healthy adult; 25 nM [3H] high affinity TRAP; 37° C., 1 hour; read-out: RBA IC50
T1 construct: centrifuged at 40,000 g for 60 minutes to yield platelet membrane; from tissue; host or cells: platelet membrane prepared from donor blood (platelet rich plasma)
T1 sequence (P25116 22-425): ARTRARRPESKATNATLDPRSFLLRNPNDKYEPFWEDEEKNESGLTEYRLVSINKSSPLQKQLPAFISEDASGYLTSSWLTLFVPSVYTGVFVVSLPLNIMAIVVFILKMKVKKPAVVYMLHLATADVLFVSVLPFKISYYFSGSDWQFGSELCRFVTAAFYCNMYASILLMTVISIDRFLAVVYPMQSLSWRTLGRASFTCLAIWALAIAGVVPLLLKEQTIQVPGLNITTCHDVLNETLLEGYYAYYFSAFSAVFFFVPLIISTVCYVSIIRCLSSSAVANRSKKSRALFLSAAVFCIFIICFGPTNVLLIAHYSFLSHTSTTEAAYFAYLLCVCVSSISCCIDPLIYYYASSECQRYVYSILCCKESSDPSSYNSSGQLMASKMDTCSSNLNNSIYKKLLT
Protocol: Blood was sampled from a healthy adult who had taken no drugs for one week, and 3.8% citric acid (a ratio of 1:9 with respect to the blood) was added as an anticoagulant. The mixture was then centrifuged at 100 g for 10 minutes at room temperature to yield platelet rich plasma (PRP). The platelet precipitate obtained by centrifuging the PRP was homogenized with a Dounce homogenizer, and then centrifuged at 40,000 g for 60 minutes to yield platelet membrane. The platelet membrane was suspended in a solution prepared by adding DMSO (dimethyl sulfoxide) at 1% concentration to Buffer 1: a 50 mM Tris-HCl buffer containing 10 mM MgCl2 and 1 mM EGTA (ethylene glycol tetraacetic acid), and the suspension was stored at −80° C. Bovine albumin and DMSO were added to Buffer 1 at 0.1% and 20%, respectively, to make preparation solutions for the test compound. The test compounds (20 μl) diluted at various concentrations with the preparation solutions were added to a 96-well multiscreen plate. […] After then adding 100 μl of the previously prepared platelet membrane suspension (0.4 mg/ml) and mixing, incubation was performed at 37° C. for 1 hour. The reaction mixture was suction filtered and then rinsed 3 times with 200 μl of Buffer 1. Next, 30 μl of liquid scintillator was added for measurement of the radioactivity of the plate using a Top Counter (Packard), the value of the radioactivity in the presence of the test compound minus non-specific binding portion was divided by the specific binding value (the value of the binding in the absence of the compound minus the non-specific binding portion) to determine the binding ratio, from which the IC50 value was calculated. The non-specific binding was the value obtained with addition of 10 μM of high affinity TRAP.

[3] = tested on: platelet rich plasma (PRP), thrombin-induced platelet aggregation; test: Inhibitory effects on platelet aggregation using platelet rich plasma; type: cell-based; details: Homo sapiens, 0.1 h, PRP of healthy adult, aggregation initiated with thrombin (0.5–1.5 units/ml), area under aggregation curve, 6 minutes, read-out: Thr IC50
Protocol: [Inhibitory Effects on Platelet Aggregation Using Platelet Rich Plasma]
Blood was sampled from a healthy adult who had taken no drugs for one week, and 3.8% citric acid (a ratio of 1:9 with respect to the blood) was added as an anticoagulant. The mixture was then centrifuged at 100 g for 10 minutes at room temperature to yield platelet rich plasma (PRP). The PRP-removed blood was further centrifuged at 1000 g for 10 minutes to yield platelet poor plasma (PPP). The number of platelet was counted using a multi-parameter automatic hemocyte counter (K4500, Sysmex), and the PRP was diluted to approximately 300,000/μl with the PPP. The platelet aggregation activity was determined in the following manner using an Aggregometer (MC Medical). GPRP-NH2 (final concentration 1 mM, 25 μl) was added as a fibrin polymerization inhibitor to the PRP (175 μl), after which Ca-free Tyrode solution (control) or the test compound suspension (25 μl) at different concentrations was added, incubation was performed at 37° C. for 3 minutes and then 25 μl of thrombin at the minimum concentration required to produce maximum aggregation (final concentration: optimum concentration among 0.5–1.5 units/ml) was added, for initiation of platelet aggregation. PRP and Ca-free Tyrode solution (control) or the preparation solutions at various concentrations were pre-incubated at 37° C. for 60 minutes, prior to the platelet aggregation reaction in some experiments. After addition of thrombin, the aggregation reaction was examined for 6 minutes and the areas under the aggregation curves were compared to determine the inhibition ratio, from which the IC50 value was calculated.

Structure (SMILES) | IC50 [1] [nM] | IC50 [2] [nM] | IC50 [3] [nM]
CCOc1cc2c(c(F)c1OCC)C(=N)N(CC(=O)c1cc(N3CCNCC3)c(OC)c(C(C)(C)C)c1)C2 [Example 112, 1-(3-tert-Butyl-4-methoxy-5-piperazin-1-yl-phenyl)-2-(5,6-diethoxy-7-fluoro-1-imino-1,3-dihydro-isoindol-2-yl)-ethanone dihydrochloride] | 52 | 30 | 28
CCOc1cc2c(cc1C(=O)NC)C(=N)N(CC(=O)c1cc(OCC)c(O)c(C(C)(C)C)c1)C2 [Example 109, 2-[2-(3-tert-Butyl-5-ethoxy-4-hydroxy-phenyl)-2-oxo-ethyl]-6-ethoxy-3-imino-2,3-dihydro-1H-isoindole-5-carboxylic acid methylamide hydrobromide] | 42 | 30 | 12
CCOc1cc2c(c(F)c1OCC)C(=N)N(CC(=O)c1cc(N3CCC(O)CC3)c(OC)c(C(C)(C)C)c1)C2 [Example 8, 1-[3-tert-Butyl-5-(4-hydroxy-piperidin-1-yl)-4-methoxyphenyl]-2-(5,6-diethoxy-7-fluoro-1-imino-1,3-dihydro-isoindol-2-yl)-ethanone hydrobromide] | 23 | 29 | 84
